# Data as given in ChEMBL document CHEMBL2321758, “Discovery of 4-{4-[(3R)-3-Methylmorpholin-4-yl]-6-[1-(methylsulfonyl)cyclopropyl]pyrimidin-2-yl}-1H-indole (AZ20): a potent and selective inhibitor of ATR protein kinase with monotherapy in vivo antitumor activity” (J Med Chem, 2013).
# Activity calls are given as the source filed them. The rule behind the calls is not given here.
# What was measured:
# [1] = target: T1, Serine/threonine-protein kinase ATR (Homo sapiens, UniProt Q13535); format: cell-based, HT-29
# T1 sequence (Q13535 whole entry): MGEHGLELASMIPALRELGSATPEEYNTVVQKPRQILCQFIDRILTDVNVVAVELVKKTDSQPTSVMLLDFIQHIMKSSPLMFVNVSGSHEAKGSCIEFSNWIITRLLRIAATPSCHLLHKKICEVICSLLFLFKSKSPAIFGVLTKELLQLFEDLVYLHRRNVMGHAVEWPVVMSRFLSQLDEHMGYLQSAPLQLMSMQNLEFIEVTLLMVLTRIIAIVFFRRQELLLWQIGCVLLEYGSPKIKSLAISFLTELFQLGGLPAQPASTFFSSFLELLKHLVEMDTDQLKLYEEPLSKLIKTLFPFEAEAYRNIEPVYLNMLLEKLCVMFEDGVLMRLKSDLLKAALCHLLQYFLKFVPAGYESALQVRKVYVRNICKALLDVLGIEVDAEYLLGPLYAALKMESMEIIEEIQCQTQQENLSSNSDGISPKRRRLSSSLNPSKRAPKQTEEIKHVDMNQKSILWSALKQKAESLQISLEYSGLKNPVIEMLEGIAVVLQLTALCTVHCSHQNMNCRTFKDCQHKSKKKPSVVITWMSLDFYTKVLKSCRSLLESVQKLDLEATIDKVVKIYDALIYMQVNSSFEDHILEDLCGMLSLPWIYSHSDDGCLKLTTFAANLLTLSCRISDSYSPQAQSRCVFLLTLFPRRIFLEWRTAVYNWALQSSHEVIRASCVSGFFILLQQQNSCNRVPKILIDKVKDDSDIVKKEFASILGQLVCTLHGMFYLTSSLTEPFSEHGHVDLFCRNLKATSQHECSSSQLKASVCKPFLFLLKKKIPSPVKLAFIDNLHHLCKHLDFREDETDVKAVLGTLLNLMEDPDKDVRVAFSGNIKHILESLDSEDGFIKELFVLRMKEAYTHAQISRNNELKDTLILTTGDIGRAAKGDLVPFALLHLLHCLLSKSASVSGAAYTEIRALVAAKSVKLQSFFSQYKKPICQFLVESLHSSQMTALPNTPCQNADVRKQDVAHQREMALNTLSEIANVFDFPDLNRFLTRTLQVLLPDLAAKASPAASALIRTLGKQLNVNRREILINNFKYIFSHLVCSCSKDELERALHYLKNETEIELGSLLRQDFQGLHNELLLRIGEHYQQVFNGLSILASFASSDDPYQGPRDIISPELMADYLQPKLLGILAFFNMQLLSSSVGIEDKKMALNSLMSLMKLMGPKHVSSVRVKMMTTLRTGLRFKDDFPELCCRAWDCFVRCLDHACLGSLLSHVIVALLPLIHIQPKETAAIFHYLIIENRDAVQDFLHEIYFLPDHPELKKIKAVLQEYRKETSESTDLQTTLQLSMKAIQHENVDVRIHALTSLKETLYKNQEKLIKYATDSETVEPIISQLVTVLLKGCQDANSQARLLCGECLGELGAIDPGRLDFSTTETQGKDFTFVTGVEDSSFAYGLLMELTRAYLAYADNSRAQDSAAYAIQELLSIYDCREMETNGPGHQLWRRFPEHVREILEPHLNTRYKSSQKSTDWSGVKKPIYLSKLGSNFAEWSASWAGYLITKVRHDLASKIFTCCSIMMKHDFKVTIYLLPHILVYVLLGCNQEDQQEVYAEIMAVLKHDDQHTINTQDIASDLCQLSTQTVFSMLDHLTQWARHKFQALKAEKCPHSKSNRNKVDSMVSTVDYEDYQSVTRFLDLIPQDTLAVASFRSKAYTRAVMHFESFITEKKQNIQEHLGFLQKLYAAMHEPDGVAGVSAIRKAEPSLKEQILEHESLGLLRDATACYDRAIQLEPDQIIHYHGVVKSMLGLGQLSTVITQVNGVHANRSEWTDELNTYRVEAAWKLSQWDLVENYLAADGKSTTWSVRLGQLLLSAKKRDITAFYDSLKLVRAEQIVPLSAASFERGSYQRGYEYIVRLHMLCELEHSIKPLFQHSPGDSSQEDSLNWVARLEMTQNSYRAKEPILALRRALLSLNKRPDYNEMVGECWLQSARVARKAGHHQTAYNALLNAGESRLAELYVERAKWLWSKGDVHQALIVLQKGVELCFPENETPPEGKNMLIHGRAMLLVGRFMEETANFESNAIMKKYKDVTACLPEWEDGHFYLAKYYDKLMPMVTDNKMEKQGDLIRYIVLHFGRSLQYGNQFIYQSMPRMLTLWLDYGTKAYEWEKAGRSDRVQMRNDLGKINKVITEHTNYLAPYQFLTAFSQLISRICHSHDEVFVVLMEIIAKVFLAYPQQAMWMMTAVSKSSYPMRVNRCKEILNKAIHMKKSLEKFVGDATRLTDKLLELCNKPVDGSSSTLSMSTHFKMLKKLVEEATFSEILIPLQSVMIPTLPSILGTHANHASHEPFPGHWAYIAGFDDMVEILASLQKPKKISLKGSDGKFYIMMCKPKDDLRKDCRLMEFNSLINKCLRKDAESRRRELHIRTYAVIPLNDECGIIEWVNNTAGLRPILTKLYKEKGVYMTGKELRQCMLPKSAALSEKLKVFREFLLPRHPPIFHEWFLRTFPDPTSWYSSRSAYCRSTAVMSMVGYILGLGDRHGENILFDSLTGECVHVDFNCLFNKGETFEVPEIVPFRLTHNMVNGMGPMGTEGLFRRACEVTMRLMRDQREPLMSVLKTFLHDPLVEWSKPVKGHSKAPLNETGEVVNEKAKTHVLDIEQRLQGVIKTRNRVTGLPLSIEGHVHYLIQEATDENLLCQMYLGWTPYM
# [2] = target: T1, Serine/threonine-protein kinase ATR
# physchem = conditions: octanol/buffer, pH 7.4
# [3] = Fraction unbound in rat plasma; format: ADME, cell-free
# [4] = AUC in Han-Wistar rat at 4 umol/kg, po; format: ADME, organism-based; conditions: plasma
# [5] = Apparent permeability from apical to basolateral side in human Caco2 cells at 10 uM at pH 6.5; format: ADME, cell-based; conditions: Caco-2, pH 6.5
# [6] = Solubility of the compound in phosphate buffer after 24 hrs at pH 7.4 by LC-UV-MS analysis; format: physicochemical
# [7] = target: T2, Serine/threonine-protein kinase mTOR (Homo sapiens, UniProt P42345); experiment: Inhibition of mTOR-mediated AKT phosphorylation at serine 473 in human MDA-MB-468 cells; format: cell-based
# [8] = target: T3, Phosphatidylinositol 4,5-bisphosphate 3-kinase catalytic subunit alpha isoform (Homo sapiens, UniProt P42336); experiment: Inhibition of PI3Kalpha (unknown origin)
# T3 sequence (P42336 whole entry, canonical isoform): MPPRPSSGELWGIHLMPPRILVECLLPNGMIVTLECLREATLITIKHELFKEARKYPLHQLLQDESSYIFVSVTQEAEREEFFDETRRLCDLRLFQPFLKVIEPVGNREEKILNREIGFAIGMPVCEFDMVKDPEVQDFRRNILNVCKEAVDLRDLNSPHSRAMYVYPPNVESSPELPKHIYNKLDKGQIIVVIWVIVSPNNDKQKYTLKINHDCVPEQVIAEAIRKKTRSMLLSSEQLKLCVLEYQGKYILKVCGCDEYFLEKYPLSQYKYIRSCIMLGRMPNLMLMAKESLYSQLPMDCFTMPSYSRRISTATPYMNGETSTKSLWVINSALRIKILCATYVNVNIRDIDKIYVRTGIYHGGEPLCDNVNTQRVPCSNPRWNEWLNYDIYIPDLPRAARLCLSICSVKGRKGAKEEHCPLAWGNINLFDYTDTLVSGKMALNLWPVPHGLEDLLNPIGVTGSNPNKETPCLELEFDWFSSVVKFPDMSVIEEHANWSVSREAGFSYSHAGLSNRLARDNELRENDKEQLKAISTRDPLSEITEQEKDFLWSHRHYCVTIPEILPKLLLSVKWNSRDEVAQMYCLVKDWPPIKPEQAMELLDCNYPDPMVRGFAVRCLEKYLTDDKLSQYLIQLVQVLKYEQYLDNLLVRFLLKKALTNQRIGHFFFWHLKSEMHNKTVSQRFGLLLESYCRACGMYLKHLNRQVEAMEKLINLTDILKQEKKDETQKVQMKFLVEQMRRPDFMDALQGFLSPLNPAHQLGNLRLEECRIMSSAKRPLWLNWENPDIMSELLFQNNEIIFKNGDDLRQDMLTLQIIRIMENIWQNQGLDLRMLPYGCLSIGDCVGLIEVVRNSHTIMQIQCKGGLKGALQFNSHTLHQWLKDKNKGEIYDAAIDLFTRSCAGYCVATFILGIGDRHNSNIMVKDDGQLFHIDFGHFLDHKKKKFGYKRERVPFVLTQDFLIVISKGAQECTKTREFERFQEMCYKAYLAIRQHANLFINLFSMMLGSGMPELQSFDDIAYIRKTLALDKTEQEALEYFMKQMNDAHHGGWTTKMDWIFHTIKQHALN
# [9] = target: Voltage-gated inwardly rectifying potassium channel KCNH2 (Homo sapiens, UniProt Q12809)
# Sequence of Voltage-gated inwardly rectifying potassium channel KCNH2 (Q12809 whole entry): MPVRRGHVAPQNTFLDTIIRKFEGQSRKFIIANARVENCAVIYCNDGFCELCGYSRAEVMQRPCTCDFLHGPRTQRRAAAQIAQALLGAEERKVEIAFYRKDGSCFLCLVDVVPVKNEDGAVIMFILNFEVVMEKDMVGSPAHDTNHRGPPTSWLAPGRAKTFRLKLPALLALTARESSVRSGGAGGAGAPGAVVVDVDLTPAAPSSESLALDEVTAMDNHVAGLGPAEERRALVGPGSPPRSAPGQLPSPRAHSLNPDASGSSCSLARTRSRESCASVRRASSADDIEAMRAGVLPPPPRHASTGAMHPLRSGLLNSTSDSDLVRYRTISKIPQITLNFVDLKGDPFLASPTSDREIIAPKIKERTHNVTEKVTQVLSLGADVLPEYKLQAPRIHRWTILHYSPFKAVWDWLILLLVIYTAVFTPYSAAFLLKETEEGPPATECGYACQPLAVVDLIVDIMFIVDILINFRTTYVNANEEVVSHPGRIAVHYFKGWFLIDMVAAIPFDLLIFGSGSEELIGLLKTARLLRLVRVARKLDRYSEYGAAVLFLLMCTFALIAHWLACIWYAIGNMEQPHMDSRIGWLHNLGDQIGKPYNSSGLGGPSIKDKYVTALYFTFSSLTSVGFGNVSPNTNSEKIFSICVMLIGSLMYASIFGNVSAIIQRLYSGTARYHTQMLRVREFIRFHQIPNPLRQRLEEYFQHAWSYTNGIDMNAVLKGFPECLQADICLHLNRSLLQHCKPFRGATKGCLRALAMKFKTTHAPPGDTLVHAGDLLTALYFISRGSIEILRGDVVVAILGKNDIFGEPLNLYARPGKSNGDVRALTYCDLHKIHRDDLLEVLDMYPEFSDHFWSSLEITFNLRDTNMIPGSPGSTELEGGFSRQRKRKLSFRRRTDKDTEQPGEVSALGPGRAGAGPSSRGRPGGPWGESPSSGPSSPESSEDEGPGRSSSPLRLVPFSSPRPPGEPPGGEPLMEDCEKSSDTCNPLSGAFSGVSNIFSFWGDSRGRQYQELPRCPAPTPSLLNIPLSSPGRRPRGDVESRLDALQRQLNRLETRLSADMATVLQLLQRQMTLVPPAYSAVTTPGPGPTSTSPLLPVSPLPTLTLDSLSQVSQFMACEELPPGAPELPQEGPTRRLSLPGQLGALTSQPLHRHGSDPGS
# in vitro = conditions: rat, hepatocytes
# [10] = Dissociation constant, pKa of the compound; format: physicochemical
# [11] = target: T2, Serine/threonine-protein kinase mTOR; experiment: Inhibition of recombinant mTOR (unknown origin)
# [12] = target: DNA-dependent protein kinase catalytic subunit (Homo sapiens, UniProt P78527); experiment: Inhibition of DNA-PK (unknown origin)
# [13] = Aqueous solubility of the compound at pH 7.4; format: physicochemical; conditions: buffer
# LoVo [14] = experiment: Antitumor activity against human LoVo cells xenografted in Swiss nu/nu mouse assessed as tumor growth inhibition at 50 mg/kg, po qd for 13 days relative to control; format: functional, organism-based; set-up: dose 50 mg/kg
# LoVo [15] = experiment: Antitumor activity against human LoVo cells xenografted in Swiss nu/nu mouse assessed as tumor growth inhibition at 25 mg/kg, po bid for 13 days relative to control; format: functional, organism-based; set-up: dose 25 mg/kg
# [16] = target: T3, Phosphatidylinositol 4,5-bisphosphate 3-kinase catalytic subunit alpha isoform; experiment: Inhibition of PI3Kalpha (unknown origin) assessed as residual activity at 1 uM
# [17] = target: T2, Serine/threonine-protein kinase mTOR; experiment: Inhibition of recombinant mTOR (unknown origin) assessed as residual activity at 1 uM
# [18] = Oral bioavailability in Han-Wistar rat at 4 umol/kg; format: ADME, organism-based; conditions: in vivo
# [19] = Bioavailability in rat; format: ADME, organism-based; conditions: in vivo
# [20] = Plasma clearance in rat; format: ADME, organism-based
# [21] = Volume of distribution in rat; format: ADME, organism-based; conditions: in vivo
Compound,IC50 [1] [nM],IC50 [2] [nM],also measured
CC[C@@H]1COCCN1c1cc(C2(S(C)(=O)=O)CC2)nc(-c2cccc3[nH]ccc23)n1,4400,170,logD (physchem): 3
CS(=O)(=O)C1(c2cc(N3CCOCC3)nc(-c3cccc4c3CC(=O)N4)n2)CC1,16000,120,–
CS(=O)(=O)C1(c2cc(N3CCOCC3)nc(-c3cccc(N)c3)n2)CC1,> 30000,1200,–
CS(=O)(=O)C1(c2cc(N3CCOCC3)nc(-c3cc(Cl)cc4[nH]ccc34)n2)CC1,720,16,–
CC(C)S(=O)(=O)C1(c2cc(N3CCOCC3)nc(-c3cccc4[nH]ccc34)n2)CC1,770,13,–
O=S(=O)(C1CCNCC1)C1(c2cc(N3CCOCC3)nc(-c3cccc4[nH]ccc34)n2)CC1,2900,46,–
CS(=O)(=O)C1(c2cc(N3CCOCC3)nc(-c3cccc4[nH]ccc34)n2)CCOCC1,180,4,fraction unbound [3]: 0.25; AUC [4]: 0.32 µM·h; Papp A→B at 10 µM [5]: 28 ×10⁻⁶ cm/s; solubility at 24 h [6]: 1.8 µM; IC50 [7]: 3300 nM; IC50 [8]: 1400 nM; IC50 [9]: > 33000 nM; hepatocyte CLint at 1 µM (in vitro): 23 µL/min/1e6 cells; logD (physchem): 2.4
CS(=O)(=O)C1(c2cc(N3CCOCC3)nc(-c3cccc4[nH]ccc34)n2)CCNCC1,420,9,fraction unbound [3]: 0.4; AUC [4]: 0.04 µM·h; Papp A→B at 10 µM [5]: 0.2 ×10⁻⁶ cm/s; solubility at 24 h [6]: 230 µM; pKa [10]: 8.8; IC50 [7]: 1500 nM; IC50 [8]: 2700 nM; IC50 [9]: > 33000 nM; hepatocyte CLint at 1 µM (in vitro): 9.4 µL/min/1e6 cells; logD (physchem): 0.7
CS(=O)(=O)Cc1cc(N2CCOCC2)nc(-c2ccc3cc[nH]c3c2)n1,> 30000,1500,–
CC(C)(c1cc(N2CCOCC2)nc(-c2cccc3[nH]ccc23)n1)S(C)(=O)=O,280,3,fraction unbound [3]: 0.2; AUC [4]: 0.76 µM·h; Papp A→B at 10 µM [5]: 16 ×10⁻⁶ cm/s; solubility at 24 h [6]: < 0.4 µM; IC50 [7]: 2700 nM; IC50 [8]: 1600 nM; IC50 [11]: 190 nM; hepatocyte CLint at 1 µM (in vitro): 41 µL/min/1e6 cells; logD (physchem): 2.7
CS(=O)(=O)Cc1cc(N2CCOCC2)nc(-c2cccc3[nH]ccc23)n1,1100,30,IC50 [7]: 5900 nM; IC50 [12]: 2700 nM; IC50 [8]: 3800 nM; IC50 [11]: 330 nM; logD (physchem): 1.7
CS(=O)(=O)C1(c2cc(N3CCOCC3)nc(-c3cccc4[nH]c(C(N)=O)cc34)n2)CC1,> 30000,1100,–
C[C@H]1COCCN1c1cc(C2(S(C)(=O)=O)CC2)nc(-c2cccc3[nH]ccc23)n1,–,–,logD (physchem): 2.8
O=S(=O)(c1ccccc1)C1(c2cc(N3CCOCC3)nc(-c3cccc4[nH]ccc34)n2)CC1,590,5,–
CS(=O)(=O)C1(c2cc(N3CCOCC3)nc(-c3ccccc3)n2)CC1,> 30000,360,–
Cc1ccc2[nH]ccc2c1-c1nc(N2CCOCC2)cc(C2(S(C)(=O)=O)CC2)n1,> 30000,–,solubility [13]: 96 µM
CN1CCC(c2cc(N3CCOCC3)nc(-c3cccc4[nH]ccc34)n2)(S(C)(=O)=O)CC1,3700,61,logD (physchem): 1.9

Compound,IC50 [1] [nM],IC50 [2] [nM],also measured
Cc1c[nH]c2cccc(-c3nc(N4CCOCC4)cc(C4(S(C)(=O)=O)CC4)n3)c12,> 30000,14000,–
C[C@@H]1COCCN1c1cc(C2(S(C)(=O)=O)CC2)nc(-c2cccc3[nH]ccc23)n1,–,–,TGI (LoVo [14]): Active; TGI (LoVo [15]): Active; Activity [16]: < 50%; Activity [17]: < 50%; bioavailability [18]: 62%; Papp A→B at 10 µM [5]: 23 ×10⁻⁶ cm/s; logD (physchem): 2.7
CN(C)C(=O)c1cc(-c2nc(N3CCOCC3)cc(C3(S(C)(=O)=O)CC3)n2)c2cc[nH]c2c1,24000,720,–
CS(=O)(=O)Cc1cc(N2CCOCC2)nc(-c2ccc3[nH]ccc3c2)n1,> 30000,1700,–
CS(=O)(=O)Cc1cc(N2CCOCC2)nc(-c2cccc3cc[nH]c23)n1,> 30000,180,–
O=S(=O)(C1CCOCC1)C1(c2cc(N3CCOCC3)nc(-c3cccc4[nH]ccc34)n2)CC1,2800,33,–
CS(=O)(=O)C1(c2cc(N3CCOCC3)nc(-c3cc(C(N)=O)cc4[nH]ccc34)n2)CC1,9200,41,–
O=S(=O)(c1ccccn1)C1(c2cc(N3CCOCC3)nc(-c3cccc4[nH]ccc34)n2)CC1,2000,33,–
Cc1cc2c(-c3nc(N4CCOCC4)cc(C4(S(C)(=O)=O)CC4)n3)cccc2[nH]1,2500,28,–
CS(=O)(=O)C1(c2cc(N3CCOCC3)nc(-c3cccc4[nH]ccc34)n2)CC1,–,–,fraction unbound [3]: 0.23; bioavailability [19]: 70%; clearance [20]: 15 mL/min/kg; Vd [21]: 2.1 L/kg; AUC [4]: 3.1 µM·h; Papp A→B at 10 µM [5]: 21 ×10⁻⁶ cm/s; solubility at 24 h [6]: 4.4 µM; IC50 [7]: 3200 nM; IC50 [8]: 940 nM; hepatocyte CLint at 1 µM (in vitro): < 3 µL/min/1e6 cells; logD (physchem): 2.2
CS(=O)(=O)C1(c2cc(N3CCOCC3)nc(-c3cccc4[nH]ncc34)n2)CC1,13000,130,–
CS(=O)(=O)C1(c2cc(N3CCOCC3)nc(-c3cccc4[nH]c(C#N)cc34)n2)CC1,7200,300,–
CS(=O)(=O)C1(c2cc(N3CCOCC3)nc(-c3cc(C#N)cc4[nH]ccc34)n2)CC1,1500,–,–
Cc1ccc(-c2nc(N3CCOCC3)cc(C3(S(C)(=O)=O)CC3)n2)c2cc[nH]c12,6300,220,–
Cc1cc(-c2nc(N3CCOCC3)cc(C3(S(C)(=O)=O)CC3)n2)c2cc[nH]c2c1,490,8,–
Cn1ccc2c(-c3nc(CS(C)(=O)=O)cc(N4CCOCC4)n3)cccc21,> 30000,3300,–
